Measurements taken from US20200046620A1, “Solid Compositions for Teeth Whitening and Anti-Microbial Effects” (Colgate-Palmolive Company, priority 2018, published 2020).

Assay: pH-dependent bleaching of Lissamine green B dye by NaDCC
Assay type: physicochemical
Details: 10 mg NaDCC in 20 mL
Protocol: Two different solutions, Solution A and Solution B, were prepared. Solution A contained 2% SAPP, 0.1% Lissamine green B dye, and 97.9% water. Solution B contained 2% tetrasodium pyrophosphate (TSPP), 0.1% Lissamine green B dye, and 97.9% water. Next, solutions with various pHs were obtained by mixing the two different solutions A and B, in different volume ratios (i.e., 1:0, 1:5, 1:1, 5:1, and 0:1). 20 mL of the resulting solutions were added to 10 mg NaDCC, and the time required to bleach away all of the Lissamine green B color was recorded.

Structure (SMILES): O=c1nc([O-])n(Cl)c(=O)n1Cl.[Na+] [NaDCC, sodium dichloroisocyanurate]
- Time to bleach (Mix Solution 1, VA:VB 1:0, pH 4.6): Instantaneous
- Time to bleach (Mix Solution 2, VA:VB 1:5, pH 5.8): 0.25 min
- Time to bleach (Mix Solution 3, VA:VB 1:1, pH 7.4): 8 min
- Time to bleach (Mix Solution 4, VA:VB 5:1, pH 8.8): 35 min
- Time to bleach (Mix Solution 5, VA:VB 0:1, pH 10.5): 80 min
